The subject of experiment [1] is CF human bronchial epithelial (CF HBE) cells. Description: Short-circuit current in CF HBE cells. The class given is cell-based. How it is done: FIG. 5A-B. Airway epithelial chloride secretion. FIG. 5A. Short-circuit current in CF HBE cells. Eact and UTP (100 μM) were added in control (left) and IL-4 (10 ng/ml, 24 h, middle) treated CF HBE cells. (right) Summary of Eact-induced, T16Ainh-A01-sensitive peak current (mean±S.E., n=6-8, * P<0.05). ENaC was inhibited by 10 μM amiloride. FIG. 5B. Eact (10 μM) and UTP (100 μM) induced CaCC Cl^− current measured in primary cultures of non-CF human tracheal gland (HTG) serous cells. (left and gmiddle) TMEM16A, CFTR and ENaC were inhibited by pretreatment with T16Ainh-A01, CFTRinh-172 and amiloride, respectively. Inset: TMEM16A immunoblot in whole cell homogenates of CF HBE and HTG cells. (right) Summary of UTP and Eact-induced peak current in the presence and absence of T16Ainh-A01 (mean±S.E., n=3, * P<0.05).
Tracheal and bronchial tissues were obtained from non-CF and CF patients following lung transplantation or from postmortem examinations performed within 24 h after death. […]
Snapwell inserts containing TMEM16A-expressing FRT, HBE, CF HBE or HTG cells were mounted in Ussing chambers (Physiologic Instruments, San Diego, Calif.). […] Apical membrane current (for FRT cells) and short-circuit current were measured using an EVC4000 Multi-Channel V/I Clamp (World Precision Instruments, Sarasota, Fla.) and recorded using PowerLab/8sp (AD Instruments, Castle Hill, Australia).

Experiment [2] concerns non-CF human tracheal gland (HTG) serous cells. Nature of the experiment: Short-circuit current in human tracheal gland (HTG) serous cells. The class given is cell-based. To be noted: T16Ainh-A01 pretreatment. How it is done:
FIG. 5A-B. Airway epithelial chloride secretion. FIG. 5A. Short-circuit current in CF HBE cells. Eact and UTP (100 μM) were added in control (left) and IL-4 (10 ng/ml, 24 h, middle) treated CF HBE cells. (right) Summary of Eact-induced, T16Ainh-A01-sensitive peak current (mean±S.E., n=6-8, * P<0.05). ENaC was inhibited by 10 μM amiloride. FIG. 5B. Eact (10 μM) and UTP (100 μM) induced CaCC Cl^− current measured in primary cultures of non-CF human tracheal gland (HTG) serous cells. (left and gmiddle) TMEM16A, CFTR and ENaC were inhibited by pretreatment with T16Ainh-A01, CFTRinh-172 and amiloride, respectively. Inset: TMEM16A immunoblot in whole cell homogenates of CF HBE and HTG cells. (right) Summary of UTP and Eact-induced peak current in the presence and absence of T16Ainh-A01 (mean±S.E., n=3, * P<0.05). […]
Snapwell inserts containing TMEM16A-expressing FRT, HBE, CF HBE or HTG cells were mounted in Ussing chambers (Physiologic Instruments, San Diego, Calif.). […] Apical membrane current (for FRT cells) and short-circuit current were measured using an EVC4000 Multi-Channel V/I Clamp (World Precision Instruments, Sarasota, Fla.) and recorded using PowerLab/8sp (AD Instruments, Castle Hill, Australia). […]

Each structure is given as a SMILES string.

Turning to `CCc1c(C)nc(SCC(=O)Nc2nc(-c3ccc(OC)cc3)cs2)[nH]c1=O` [T16Ainh-A01, reference compound], in experiment [1], the “block of Eact-induced Cl^− current in IL-4 treated CF bronchial cells” value is given as “blocked”. Besides, in experiment [2], the “effect of pretreatment on UTP- and Eact-induced Cl^− current” value is listed as “largely abolished”.

The values above are taken from patent publication US9790218B2, “Small molecule activators of calcium-activated chloride channels and methods of use” (The Regents of the University of California, priority 2011, dated 2017).
